Measured values: US20250319162A1, “METHODS AND MATERIALS FOR TREATING OBESITY” (Regents of the University of California, priority 2024, published 2025)

How the values were obtained:
[1] = test system: Drp1 S637 phosphorylation in 3T3-L1 adipocytes; experiment: Immunoblot of phospho-Drp1 (S637) in 3T3-L1 adipocytes after forskolin; format: cell-based, murine; conditions: pretreated with 50 μM RBC8 or DMSO for 30 min, then 5 μM forskolin
Excerpt: Immunoblotting of phospho-Drp1 S637, total Drp1 and β-Tubulin in iWAT of HFD-fed Rala^f/f (n=10) and Rala^AKO (n=13) mice. FIGS. 12B and 12C: Immunoblotting (FIG. 12B) and quantification (FIG. 12C) of phospho-Drp1(S637), total Drp1, and β-Tubulin in eWAT of HFD-fed Rala^f/f (n=8) and Rala^AKO (n=12) mice. FIGS. 12D and 12E: Immunoblotting (FIG. 12D) and quantification (FIG. 12E) of phospho-Drp1(S637), total Drp1 and β-Actin in iWAT of CD-fed mice. Non-fasted Rala^f/f (vehicle n=3, CL n=4) and Rala^AKO (vehicle n=3, CL n=5) mice fed with CD were i.p. injected with 1 mg/kg CL for 30 min. P=0.0054, P=0.0135 (FIG. 12E). FIGS. 12F and 12G: Immunoblotting (FIG. 12F) and quantification (FIG. 12G) of phospho-Drp1(S637), total Drp1, RalA, and β-Actin in fully differentiated primary adipocytes (n=4 biological samples). P=0.0085, P=0.0046 (FIG. 12G). […] FIGS. 12H and 12I: Immunoblotting (FIG. 12H) and quantification (FIG. 12I) of phospho-Drp1(S637), total Drp1, RalA, and β-Actin in immortalized adipocytes (n=4 biological samples). […] FIGS. 12J and 12K: Immunoblotting (FIG. 12J) and quantification (FIG. 12K) of phospho-Drp1(S637), total Drp1, and β-Actin in 3T3-L1 adipocytes (n=4 biological samples). […] FIGS. 12M and 12N: Quantification of phospho-HSL (S660) and HSL in primary (FIG. 12M) and immortalized adipocytes (FIG. 12N) treated with CL for indicated time (n=4 biological samples). […]

[2] = test system: Drp1 S637 phosphorylation in human primary adipocyte cell line SGBS; experiment: Immunoblot of phospho-Drp1 (S637) in human primary adipocytes (SGBS) after forskolin; format: cell-based; conditions: SGBS cells; pretreated with 50 μM RBC8 or DMSO for 30 min, then 20 μM forskolin
Description: FIGS. 5A-5J. […] FIG. 5A: Quantification of phospho-Drp1 (S637) and total Drp1 in iWAT of HFD-fed Rala^f/f (n=10) and Rala^AKO (n=13) mice; P=0.0001. FIGS. 5B and 5C: Immunoblotting (FIG. 5B) and quantification (FIG. 5C) of phospho-Drp1 (S637) and total Drp1 in immortalized adipocytes (n=4 biological samples); P=0.0125 (FIG. 5C). Adipocytes were treated with 20 μM forskolin (Fsk) for indicated time. FIGS. 5D and 5E: Immunoblotting (FIG. 5D) and quantification of phospho-Drp1 (S637) and total Drp1 in human primary adipocytes (SGBS) (n=4 biological samples). […] Significance in correlation was assessed by Spearman's correlation test (FIGS. 5H, and 5J). […]
Tissues or cells were lysed or homogenized in RIPA buffer with freshly added Halt Protease and Phosphatase Inhibitor Cocktail (Thermo Fisher). […] Cleared supernatants were collected and concentrations were determined with a BCA protein assay kit (Pierce) and iTecan plate reader for quantification. […] Individual 10 proteins were detected with the specific antibodies (OXPHOS ab110413, β-tubulin 2146S, phospho-Drp1 (Ser637) 4867S, phospho-HSL (Ser660) 45804S, HSL 4107S, MYC 2276S, Drp1 8570S, phosphor-AMPK (Thr172) 2535S, AMPK 5831S, RalA BD610221, β-actin 66009-1-Ig, Flag 66008-4-Ig, GFP 66002-1-Ig, and Sec512751-1-AP). […] Bands were quantified with ImageStudio or ImageJ.

SMILES: COc1ccc(OC)c(C2C(C#N)=C(N)Oc3n[nH]c(-c4ccc5ccccc5c4)c32)c1 (centres unmarked) [RBC8]
- forskolin-stimulated Drp1 S637 phosphorylation [1]: significantly increased forskolin-stimulated Drp1 S637 phosphorylation
- forskolin-stimulated Drp1 S637 phosphorylation [2]: increased forskolin-stimulated Drp1 S637 phosphorylation
